Tests used:
[1] = system: Glomerella lagenarium (Colletotrichum lagenarium); experiment: Fungicidal activity against Glomerella lagenarium (Colletotrichum lagenarium) liquid culture / cucumber / preventative (anthracnose); assay type: cell-based; settings: Colletotrichum orbiculare; 20 ppm in the applied formulation; liquid culture (PDB), growth inhibition measured photometrically after 3 to 4 days; compared to untreated control; read-out: disease control
Outline: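 Percent activity against the untreated check was derived from photometric growth measurements made 2 to 7 days after conidia in potato dextrose broth were combined with compound at 20 ppm. Cultures were kept dark at 24 °C and 96% humidity.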

[2] = system: Puccinia recondita f. Sp. Tritici; experiment: Fungicidal activity against Puccinia recondita f. sp. tritici / wheat / leaf disc preventative (brown rust); assay type: in vivo; settings: foliar, 200 ppm in the applied formulation, wheat leaf segments, preventative, compared to untreated control leaf disks, read-out: disease control
Outline: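 200 ppm spray on wheat cv. Kanzler leaf segments; spore inoculation +1 day; 19° C., 75% rh, 12 h/12 h light cycle; single rating of % control vs untreated at 7 to 9 days.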

Phakopsora Pachyrhizi = experiment: Fungicidal activity against Phakopsora pachyrhizi / soybean / leaf disc preventative (Asian soybean rust); assay type: in vivo; settings: foliar, 200 ppm in the applied formulation, soybean leaf disks, compared to untreated control leaf disks, read-out: disease control
Outline: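 Scored 12 to 14 days post-application as percent control relative to untreated check discs, rust spores were sprayed under the disc one day after compound treatment. Incubation: 20°C, 75% rh, first 24–36 h in darkness, then 12 h daily light; discs kept on water agar.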

[3] = system: Puccinia recondita f. Sp. Tritici; experiment: Fungicidal activity against Puccinia recondita f. sp. tritici / wheat / leaf disc curative (brown rust); assay type: in vivo; settings: foliar, 24 h, 200 ppm in the applied formulation, wheat leaf segments, curative (applied 1 day after inoculation), compared to untreated control leaf disks, read-out: disease control
Outline: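 Curative test on wheat leaf segments (cv. Kanzler) on agar, inoculated with spore suspension and held dark at 19° C, 75% RH; formulated compound in water applied 1 day after inoculation. Incubated at 19° C, 75% RH, 12 h light/12 h dark; percent disease control versus untreated scored 6 to 8 days after application.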

N#CCC(=O)N(O)Cc1ccc(-c2noc(C(F)(F)F)n2)cc1 [Compound 1.771, 2-cyano-N-hydroxy-N-[[4-[5-(trifluoromethyl)-1,2,4-oxadiazol-3-yl]phenyl]methyl]-acetamide]
≥ 80%: inhibition of growth at 20 ppm [1] | pest or weed control at 200 ppm [2] | pest or weed control at 200 ppm (Phakopsora Pachyrhizi) | pest or weed control at 200 ppm [3]

COCCN(Cc1ccc(-c2noc(C(F)(F)F)n2)cc1)C(=O)C1CCCO1 (stereo not shown) [Compound 1.355, N-(2-methoxyethyl)-N-[[4-[5-(trifluoromethyl)-1,2,4-oxadiazol-3-yl]phenyl]methyl]-tetrahydrofuran-2-carboxamide]
≥ 80%: inhibition of growth at 20 ppm [1] | pest or weed control at 200 ppm [2] | pest or weed control at 200 ppm (Phakopsora Pachyrhizi) | pest or weed control at 200 ppm [3]

CCC(C)NC(=O)N(Cc1ccc(-c2noc(C(F)(F)F)n2)cc1)OC (stereo not shown) [Compound 3.9, 1-methoxy-3-sec-butyl-1-[[4-[5-(trifluoromethyl)-1,2,4-oxadiazol-3-yl]phenyl]methyl]urea]
≥ 80%: inhibition of growth at 20 ppm [1] | pest or weed control at 200 ppm [2] | pest or weed control at 200 ppm (Phakopsora Pachyrhizi) | pest or weed control at 200 ppm [3]

CC1(C(=O)N(Cc2ccc(-c3noc(C(F)(F)F)n3)cc2)C2COC2)CC1 [Compound 1.743, 1-methyl-N-(oxetan-3-yl)-N-[[4-[5-(trifluoromethyl)-1,2,4-oxadiazol-3-yl]phenyl]methyl]-cyclopropane-carboxamide]
≥ 80%: inhibition of growth at 20 ppm [1] | pest or weed control at 200 ppm [2] | pest or weed control at 200 ppm (Phakopsora Pachyrhizi) | pest or weed control at 200 ppm [3]

CON(Cc1ccc(-c2noc(C(F)(F)F)n2)cc1)C(=O)C(C)(C)CCl [Compound 1.35, 3-chloro-N-methoxy-2,2-dimethyl-N-[[4-[5-(trifluoromethyl)-1,2,4-oxadiazol-3-yl]phenyl]methyl]-propanamide]
≥ 80%: inhibition of growth at 20 ppm [1] | pest or weed control at 200 ppm [2] | pest or weed control at 200 ppm (Phakopsora Pachyrhizi) | pest or weed control at 200 ppm [3]

CON(Cc1ccc(-c2noc(C(F)(F)F)n2)cc1)C(=O)C1(C(F)(F)F)CCC1 [Compound 1.19, N-methoxy-1-(trifluoromethyl)-N-[[4-[5-(trifluoromethyl)-1,2,4-oxadiazol-3-yl]phenyl]methyl]-cyclobutane-carboxamide]
≥ 80%: inhibition of growth at 20 ppm [1] | pest or weed control at 200 ppm [2] | pest or weed control at 200 ppm (Phakopsora Pachyrhizi) | pest or weed control at 200 ppm [3]

C#CCN(Cc1ccc(-c2noc(C(F)(F)F)n2)cc1)C(=O)C1CCOC1 (stereo not shown) [Compound 1.171, N-prop-2-ynyl-N-[[4-[5-(trifluoromethyl)-1,2,4-oxadiazol-3-yl]phenyl]methyl]-tetrahydrofuran-3-carboxamide]
≥ 80%: inhibition of growth at 20 ppm [1] | pest or weed control at 200 ppm [2] | pest or weed control at 200 ppm (Phakopsora Pachyrhizi) | pest or weed control at 200 ppm [3]

O=C(N(Cc1ccc(-c2noc(C(F)(F)F)n2)cc1)C1CC1)C1(C(F)(F)F)CCC1 [Compound 1.92, N-cyclopropyl-1-(trifluoromethyl)-N-[[4-[5-(trifluoromethyl)-1,2,4-oxadiazol-3-yl]phenyl]methyl]-cyclobutane-carboxamide]
≥ 80%: inhibition of growth at 20 ppm [1] | pest or weed control at 200 ppm [2] | pest or weed control at 200 ppm (Phakopsora Pachyrhizi) | pest or weed control at 200 ppm [3]

COCCC(=O)N(C)Cc1ccc(-c2noc(C(F)(F)F)n2)cc1 [Compound 1.516, 3-methoxy-N-methyl-N-[[4-[5-(trifluoromethyl)-1,2,4-oxadiazol-3-yl]phenyl]methyl]-propanamide]
≥ 80%: inhibition of growth at 20 ppm [1] | pest or weed control at 200 ppm [2] | pest or weed control at 200 ppm (Phakopsora Pachyrhizi) | pest or weed control at 200 ppm [3]

C=C(C)C(=O)N(Cc1ccc(-c2noc(C(F)(F)F)n2)cc1)C(C)CC (stereo not shown) [Compound 1.390, 2-methyl-N-sec-butyl-N-[[4-[5-(trifluoromethyl)-1,2,4-oxadiazol-3-yl]phenyl]methyl]-prop-2-enamide]
≥ 80%: inhibition of growth at 20 ppm [1] | pest or weed control at 200 ppm [2] | pest or weed control at 200 ppm (Phakopsora Pachyrhizi) | pest or weed control at 200 ppm [3]

From US11180462B2, “Microbiocidal oxadiazole derivatives” (SYNGENTA PARTICIPATIONS AG, priority 2015, dated 2021)
